Test results reported in US8492515B2 (priority 2008, dated 2013).
In brackets after ≈: the same amount, converted by molar mass. Square brackets hold non-standard residues; d marks the D form. Peptide text beside a SMILES is read from it. Ac6c = NC1(C(=O)O)CCCCC1

Key:
[1] = system: extended-spectrum β-lactamase producing E. coli strain (designation 5770); experiment: Systemic infection model, cisplatin-pretreated CD-1 mice, blood bacterial counts; assay type: in vivo
Protocol: (§1) As peptide drugs, such as antimicrobial peptides, are predominantly cleared through the kidneys (Klootwijk et al., 1997. J. Clin. Endocrinol. Metab. 82: 3068-3073) and the kidney functions of mice are 20-fold faster than those of humans, CD-1 female mice of 15-20 g were pretreated with 18 mg/kg cisplatin for 3 days to impair kidney clearance similar to the levels observed in humans (Mathe et al., 2006. Lab. Anim. 40: 296-300) before they were challenged intraperitoneally (ip) with 10^8 CFU per g mouse of an extended-spectrum β-lactamase producing E. coli strain (designation 5770). Four, 8 and 12 hours after challenge 10 or 20 mg/kg peptide Chex1-Arg20 or 40 mg/kg imipenem (as a positive control) were administered ip to 10 mice in each group. Imipenem is a broad spectrum β-lactam antibiotic. Prior to drug administration at all three timepoints, blood was taken from the tail vein of 3-5 mice for determining blood bacterial counts. […] Antimicrobials were administered ip 4 hours after challenge 3 times in 4 hour intervals. Blood was taken immediately before antimicrobial treatments. Numbers in parentheses indicate the number of mice with <10^3 CFU/mL. Bacterial counts were determined 10 times from different dilution of blood from 5 mice in each group in each timepoints.

E. coli HK179 [2] = system: E. coli HK179
From the text: (§2) To investigate the activity of the A3-APO metabolites, Chex1-Arg20 single chain unit and an Arg7-Arg20 common cleavage fragment were synthesized and studied for their ability to kill Enterobacteriaceae strains in undiluted Muller-Hinton broth, a true measure of potential clinical viability (Otvos et al., 2005. J. Med. Chem. 48: 5349-5359). The peptides of the invention were made on a CEM Liberty automated synthesizer with standard Fmoc-chemistry. The peptides were detached from the resin with the carboxyl terminus of the C-terminal Arg residue being in the form of an amino amide, —C(O)—NH2 (“Chex1-Arg20-NH2” and “Arg7-Arg20-NH2”), while still in the microwave chamber, and were purified by RP-HPLC. […] The biological studies carried out on chemically synthesized peptides in this example and succeeding examples were carried out on the C-terminal modified versions of the peptides wherein the C-terminal carboxylic acid function was in the form of an amide, —C(O)—NH2. Antibacterial growth inhibition assays were performed using sterile 96-well polypropylene plates (Nunc F96 microtiter plates) in a final volume of 100 μL as described previously (Cudic et al., 2002. Peptides 23: 271-283). The cell concentrations were estimated by measuring the ultraviolet absorbance at 600 nm and applying the formula cfu/mL=A600(3.8×10^8), where cfu is the number of colony-forming units. Briefly, 50 μL of a suspension of midlogarithmic phase bacterial cultures diluted to 5×10^5 cfu/mL in Muller-Hinton broth (MHB) was added to 50 μL of serially diluted peptides also dissolved in MHB. The final peptide concentration was 128 μg/mL. Cultures were then incubated at 37° C., 5% CO2 for 16-20 h without shaking, and growth inhibition was measured by recording the absorbance at 600 nm using a microplate reader. […] The minimal inhibitory concentration indicates the lowest peptide dose where no visible bacterial growth is detected after 16 hours incubation in full strength Muller-Hinton broth at 37° C. The peptide Chex-pyrr-Dap dimer was also included in the study. […] (Cudic et al., 2002. Peptides 23: 271-283).
(§3) Following the protocol of Example 2, minimal inhibitory concentrations of the Chex1-Arg20 peptide against selected bacteria was determined. […] A3-APO was included for comparison.

E. coli SEQ102 [3] = system: E. coli SEQ102
From the text: as §2, §3

K. pneumoniae 012-3132 = system: K. pneumoniae 012-3132
From the text: as §2, §3

K. pneumoniae HK 123 = system: K. pneumoniae HK 123
From the text: as §2, §3

K. pneumoniae HK 127 = system: K. pneumoniae HK 127
From the text: as §2, §3

P. aeruginosa ATCC 39329 = system: P. aeruginosa ATCC 39329
From the text: as §2, §3

[4] = system: S. saprophyticus ATCC 15305
From the text: as §2, §3

E. coli 045-849 = system: E. coli 045-849
From the text: as §2, §3

S. typhimurium G10215 [5] = system: S. typhimurium G10215
From the text: as §2, §3

S. typhimurium S5 = system: S. typhimurium S5
From the text: as §2, §3

K. pneumoniae K6 = system: K. pneumoniae K6
From the text: as §2, §3

[6] = system: S. typhimurium ATCC 14028
From the text: as §2, §3

E. coli 5770 = system: E. coli 5770
From the text: as §2, §3

E. coli HK179 [7] = conditions: HK179, 16 h
From the text: as §2

E. coli SEQ102 [8] = conditions: SEQ102, 16 h
From the text: as §2

E. coli D31 = conditions: full strength Muller-Hinton broth, 16 hours, 37° C.
From the text: as §2

K. pneumoniae HK123 = conditions: HK123, 16 h
From the text: as §2

[9] = system: Klebsiella pneumoniae isolates
From the text: as §2

S. typhimurium G10215 [10] = conditions: G10215, 16 h
From the text: as §2

[11] = system: Enterobacteriaceae strains
From the text: as §2

[12] = Gross necropsy of surviving mice three days post-infection; assay type: in vivo, CD-1 mice; conditions: 10 or 20 mg/kg ip
Protocol: as §1
The skin was smooth, and healthy liver, lungs, spleen and kidneys were registered.

CC(C)C[C@H](NC(=O)[C@H](Cc1ccc(O)cc1)NC(=O)[C@@H]1CCCN1C(=O)[C@H](CCCNC(=N)N)NC(=O)[C@@H]1CCCN1C(=O)[C@H](CCCCN)NC(=O)[C@H](CC(=O)O)NC(=O)[C@@H]1CCCN1C(=O)[C@H](CCCNC(=N)N)NC(=O)C1(N)CCCCC1)C(=O)N1CCC[C@H]1C(=O)N[C@@H](CCCNC(=N)N)C(=O)N1CCC[C@H]1C(=O)N[C@@H](CCCNC(=N)N)C(=O)N1CCC[C@H]1C(=O)N1CCC[C@H]1C(=O)N[C@@H](CCCNC(=N)N)C(=O)N1CCC[C@H]1C(=O)N[C@H](C(=O)N[C@@H](CCCNC(=N)N)C(=O)O)C(C)C [Chex1-Arg20, Chex-Arg-Pro-Asp-Lys-Pro-Arg-Pro-Tyr-Leu-Pro-Arg-Pro-Arg--Pro-Pro-Arg-Pro-Val-Arg] (H-[Ac6c]RPDKPRPYLPRPRPPRPVR-OH; N-terminus and C-terminus assumed)
bacterial count reduction ([1]; 10 mg/kg): approximately 3 log 10 units | Bacterial counts in blood after inoculation/challenge ([1]; 10 mg/kg ip, 4 h (blood taken before first dose)): 3.2 × 10^5 CFU/mL | Bacterial counts in blood after inoculation/challenge ([1]; 10 mg/kg ip, 8 h): 8.2 × 10^3 CFU/mL | number of mice with <10^3 CFU/mL ([1]; 10 mg/kg ip, 8 h): 1/5 | Bacterial counts in blood after inoculation/challenge ([1]; 10 mg/kg ip, 12 h): < 1.3 × 10^4 CFU/mL | number of mice with <10^3 CFU/mL ([1]; 10 mg/kg ip, 12 h): 1/5 | effect on mouse blood after a lethal E. coli infection ([1]; 20 mg/kg): sterilized mouse blood | Bacterial counts in blood after inoculation/challenge ([1]; 20 mg/kg ip, 4 h (blood taken before first dose)): 3.2 × 10^5 CFU/mL | Bacterial counts in blood after inoculation/challenge ([1]; 20 mg/kg ip, 8 h): 5.5 × 10^4 CFU/mL | number of mice with <10^3 CFU/mL ([1]; 20 mg/kg ip, 8 h): 3/5 | Bacterial counts in blood after inoculation/challenge ([1]; 20 mg/kg ip, 12 h): < 3.7 × 10^3 CFU/mL | number of mice with <10^3 CFU/mL ([1]; 20 mg/kg ip, 12 h): 3/5 | bacterial count reduction ([1]; after two doses of 20 mg/kg): 3.5 log 10 units | mice having blood bacterial levels below detection limits ([1]; after two doses of 20 mg/kg): 60% | MIC, E. coli HK179 (E. coli HK179 [2]): 1 µg/mL (≈ 0.404 µM) | MIC, E. coli SEQ102 (E. coli SEQ102 [3]): 1 µg/mL (≈ 0.404 µM) | MIC, K. pneumoniae 012-3132 (K. pneumoniae 012-3132): 0.25 µg/mL (≈ 0.101 µM) | MIC, K. pneumoniae HK 123 (K. pneumoniae HK 123): 2 µg/mL (≈ 0.808 µM) | MIC, K. pneumoniae HK 127 (K. pneumoniae HK 127): 0.25 µg/mL (≈ 0.101 µM) | MIC, P. aeruginosa ATCC 39329 (P. aeruginosa ATCC 39329): 32 µg/mL (≈ 12.9 µM) | MIC, S. saprophyticus ATCC 15305 [4]: 4 µg/mL (≈ 1.62 µM) | MIC, E. coli 045-849 (E. coli 045-849): 2 µg/mL (≈ 0.808 µM) | MIC, S. typhimurium G10215 (S. typhimurium G10215 [5]): 0.25 µg/mL (≈ 0.101 µM) | MIC, S. typhimurium S5 (S. typhimurium S5): 0.5 µg/mL (≈ 0.202 µM) | MIC, K. pneumoniae K6 (K. pneumoniae K6): 2 µg/mL (≈ 0.808 µM) | MIC, S. typhimurium ATCC 14028 [6]: 1 µg/mL (≈ 0.404 µM) | MIC, E. coli 5770 (E. coli 5770): 0.5 µg/mL (≈ 0.202 µM) | MIC against E. coli HK179 (E. coli HK179 [7]): 2 µg/mL (≈ 0.808 µM) | MIC against E. coli SEQ102 (E. coli SEQ102 [8]): 32 µg/mL (≈ 12.9 µM) | MIC against E. coli D31 (E. coli D31): 8 µg/mL (≈ 3.23 µM) | MIC against K. pneumoniae HK123 (K. pneumoniae HK123): 8 µg/mL (≈ 3.23 µM) | minimal bactericidal concentrations (MBC) [9]: 8 µg/mL (≈ 3.23 µM) | MIC against S. typhimurium G10215 (S. typhimurium G10215 [10]): 4 µg/mL (≈ 1.62 µM) | IC50 [11]: 100 to 500 nM | activity relative to A3-APO in milligram/L terms ([11]; on average): twice as active | activity relative to A3-APO in molar terms ([11]; on average): 5 times | potency in killing resistant bacteria relative to A3-APO ([11]; overall, Table 3): twice as potent | internal bleeding (hemolysis) [12]: no signs of internal bleeding | signs of toxicity at gross necropsy [12]: no signs of toxicity
